Source: ChEMBL document CHEMBL5126603, “Discovery of Clinical Candidate CHF-6366: A Novel Super-soft Dual Pharmacology Muscarinic Antagonist and β2 Agonist (MABA) for the Inhaled Treatment of Respiratory Diseases” (J Med Chem, 2022)
pIC50: −log10 of the molar value.

Key:
[1] = Cmax in Dunkin-Hartley guinea pig lung at 500 nmol/Kg, IT(Intratracheal) measured after 72 hrs by LC/MS-MS analysis; type: ADME, tissue-based, Cavia porcellus; set-up: time 72 hrs, dose 500 nmol/kg, route it(Intratracheal); conditions: inhaled or intranasal
[2] = Tmax in Dunkin-Hartley guinea pig lung at 500 nmol/Kg, IT(Intratracheal) measured after 72 hrs by LC/MS-MS analysis; type: ADME, tissue-based, Cavia porcellus; conditions: inhaled or intranasal
[3] = AUClast in Dunkin-Hartley guinea pig lung at 500 nmol/Kg, IT(Intratracheal) measured after 72 hrs by LC/MS-MS analysis; type: ADME, tissue-based, Cavia porcellus; conditions: in vivo, inhaled_or_intranasal
[4] = AUCinfinity in Dunkin-Hartley guinea pig lung at 500 nmol/Kg, IT(Intratracheal) measured after 72 hrs by LC/MS-MS analysis; type: ADME, tissue-based, Cavia porcellus; set-up: dose 500 nmol/kg, time 72 hrs, route it(Intratracheal); conditions: in vivo, inhaled_or_intranasal
[5] = Half life in Dunkin-Hartley guinea pig lung at 500 nmol/Kg, IT(Intratracheal) measured after 72 hrs by LC/MS-MS analysis; type: ADME, tissue-based, Cavia porcellus; conditions: inhaled or intranasal
[6] = Cmax in Dunkin-Hartley guinea pig plasma at 500 nmol/Kg, IT(Intratracheal) measured after 72 hrs by LC/MS-MS analysis; type: ADME, cell-free, Cavia porcellus; set-up: dose 500 nmol/kg, time 72 hrs, route it(Intratracheal); conditions: inhaled or intranasal
[7] = Tmax in Dunkin-Hartley guinea pig plasma at 500 nmol/Kg, IT(Intratracheal) measured after 72 hrs by LC/MS-MS analysis; type: ADME, cell-free, Cavia porcellus; conditions: inhaled or intranasal
[8] = AUClast in Dunkin-Hartley guinea pig plasma at 500 nmol/Kg, IT(Intratracheal) measured after 72 hrs by LC/MS-MS analysis; type: ADME, cell-free, Cavia porcellus; set-up: time 72 hrs, dose 500 nmol/kg, route it(Intratracheal); conditions: inhaled or intranasal
[9] = AUCinfinity in Dunkin-Hartley guinea pig plasma at 500 nmol/Kg, IT(Intratracheal) measured after 72 hrs by LC/MS-MS analysis; type: ADME, cell-free, Cavia porcellus; set-up: dose 500 nmol/kg, time 72 hrs, route it(Intratracheal); conditions: inhaled or intranasal
[10] = Half life in Dunkin-Hartley guinea pig plasma at 500 nmol/Kg, IT(Intratracheal) measured after 72 hrs by LC/MS-MS analysis; type: ADME, cell-free, Cavia porcellus; conditions: inhaled or intranasal
[11] = Mutagenicity in Salmonella typhimurium assessed as induction of reverse mutation by Ames test; type: toxicity; conditions: salmonella enterica subsp. enterica serovar typhimurium
[12] = Mutagenicity in Escherichia coli assessed as induction of reverse mutation by Ames test; type: toxicity
[13] = tested on: Trachea; assay: (§1) Bifunctional antagonist activity at muscarinic M3 receptor /agonist activity at beta-2 adrenoceptor in Dunkin-Hartley guinea pig trachea assessed as inhibition of acetylcholine-induced bronchoconstriction at 1 nmol/Kg, IT(Intratracheal) measured after 5 mins by Konzett-Roessler methodology relative to control; type: functional; conditions: Cavia porcellus
[14] = tested on: Trachea; assay: as §1, with “15” for “5”; type: functional; conditions: Cavia porcellus, 0.25 h
[15] = tested on: Trachea; assay: as §1, with “30” for “5”; type: functional; conditions: Cavia porcellus, 0.5 h
[16] = Metabolic stability in rat lung S9 fraction assessed as half life at 1 uM measured after 0 to 60 mins in presence of NADPH by LC-MS/MS analysis; type: ADME, subcellular; conditions: time 0-60 min
[17] = Metabolic stability in human lung S9 fraction assessed as half life at 1 uM measured after 0 to 60 mins in presence of NADPH by LC-MS/MS analysis; type: ADME, subcellular; conditions: time 0-60 min
[18] = Metabolic stability in Dunkin-Hartley guinea pig lung S9 fraction assessed as half life at 1 uM measured after 0 to 60 mins in presence of NADPH by LC-MS/MS analysis; type: ADME, subcellular, Cavia porcellus; conditions: time 0-60 min
[19] = Metabolic stability in human plasma assessed as half life at 5 uM measured upto 120 mins by LC-MS/MS analysis; type: ADME, cell-free
[20] = Metabolic stability in rat plasma assessed as half life at 5 uM measured upto 120 mins by LC-MS/MS analysis; type: ADME, cell-free
[21] = Metabolic stability in Dunkin-Hartley guinea pig plasma assessed as half life at 5 uM measured upto 120 mins by LC-MS/MS analysis; type: ADME, cell-free, Cavia porcellus
[22] = In vivo antagonist activity at muscarinic M3 receptor in Dunkin-Hartley guinea pig trachea assessed as inhibition of acetylcholine-induced bronchoconstriction at 3 nmol/Kg, IT(Intratracheal) measured after 1 hr in presence of ICI-118551 by Konzett-Roessler methodology relative to control; type: functional; conditions: Cavia porcellus
[23] = In vivo agonist activity at beta-2 adrenoceptor in Dunkin-Hartley guinea pig trachea assessed as inhibition of histamine-induced bronchoconstriction at 3 nmol/Kg, IT(Intratracheal) measured after 1 hr by Konzett-Roessler methodology relative to control; type: functional; conditions: Cavia porcellus
[24] = tested on: Trachea; assay: as §1, with “3” for “1”, “1 hr” for “5 mins”; type: functional; conditions: Cavia porcellus
[25] = In vivo antagonist activity at muscarinic M3 receptor in Dunkin-Hartley guinea pig trachea assessed as inhibition of acetylcholine-induced bronchoconstriction at 3 nmol/Kg, IT(Intratracheal) measured after 24 hr in presence of ICI-118551 by Konzett-Roessler methodology relative to control; type: functional; conditions: Cavia porcellus
[26] = In vivo agonist activity at beta-2 adrenoceptor in Dunkin-Hartley guinea pig trachea assessed as inhibition of histamine-induced bronchoconstriction at 3 nmol/Kg, IT(Intratracheal) measured after 24 hr by Konzett-Roessler methodology relative to control; type: functional; conditions: Cavia porcellus
[27] = tested on: Trachea; assay: as §1, with “3” for “1”, “24 hr” for “5 mins”; type: functional; conditions: Cavia porcellus
[28] = tested on: Trachea; assay: In vivo bifunctional antagonist activity at muscarinic M3 receptor /agonist activity at beta-2 adrenoceptor in Dunkin-Hartley guinea pig trachea assessed as time duration for inhibition of carbachol induced contraction measured […]; type: functional, Cavia porcellus
[29] = tested on: Trachea; assay: In vivo bifunctional antagonist activity at muscarinic M3 receptor /agonist activity at beta-2 adrenoceptor in Dunkin-Hartley guinea pig trachea assessed as inhibition of carbachol induced contraction; type: functional, tissue-based; conditions: Cavia porcellus
[30] = In vivo antagonist activity at muscarinic M3 receptor in Dunkin-Hartley guinea pig trachea assessed as inhibition of acetylcholine induced bronchoconstriction at 1 nmol/Kg, IT(Intratracheal) measured after 1 hr in presence of ICI-118551 by Konzett-Roessler methodology relative to control; type: functional; conditions: Cavia porcellus
[31] = In vivo antagonist activity at muscarinic M3 receptor in Dunkin-Hartley guinea pig trachea assessed as inhibition of acetylcholine induced bronchoconstriction at 1 nmol/Kg, IT(Intratracheal) measured after 24 hr in presence of ICI-118551 by Konzett-Roessler methodology relative to control; type: functional; conditions: Cavia porcellus
[32] = In vivo agonist activity at beta-2 adrenoceptor in Dunkin-Hartley guinea pig trachea assessed as inhibition of histamine induced bronchoconstriction at 1 nmol/Kg, IT(Intratracheal) measured after 1 hr by Konzett-Roessler methodology relative to control; type: functional; conditions: Cavia porcellus
[33] = tested on: Trachea; assay: as §1, with “acetylcholine induced” for “acetylcholine-induced”, “1 hr” for “5 mins”; type: functional; conditions: Cavia porcellus
[34] = tested on: Trachea; assay: as §1, with “acetylcholine induced” for “acetylcholine-induced”, “24 hr” for “5 mins”; type: functional; conditions: Cavia porcellus

## O=c1ccc2c([C@@H](O)CNCCCCO)ccc(O)c2[nH]1
[1]
  Cmax: 334 ng/g
[2]
  Tmax: 4.98 min
[3]
  AUClast: 2429 ng·h/g
[4]
  AUC: 3517 ng·h/g
[5]
  half-life: 858 min
[6]
  Cmax: 13.8 ng/g
[7]
  Tmax: 4.98 min
[8]
  AUC(0-t) at 72 h: 30.7 ng·h/mL
[9]
  AUC(0-inf): 58.9 ng·h/mL
[10]
  half-life: 464 min
[11]
  Activity: Non-Toxic
[12]
  Activity: Non-Toxic
[13]
  inhibition in vivo at 0.001 µmol/kg: 51.4%
[14]
  inhibition in vivo at 0.001 µmol/kg: 23.2%
[15]
  inhibition in vivo at 0.001 µmol/kg: 22%

## O=C(N[C@@H](c1ccccc1)c1cccc(OCc2nc(C(=O)OCCCCNC[C@H](O)c3ccc(O)c4[nH]c(=O)ccc34)co2)c1)O[C@H]1CN2CCC1CC2
[16]
  half-life at 1 µM: 120 min
[17]
  half-life at 1 µM: 35 min
[18]
  half-life at 1 µM: > 120 min
[19]
  half-life at 5 µM: < 5 min
[20]
  half-life at 5 µM: < 5 min
[21]
  half-life at 5 µM: 77.9 min
[22]
  inhibition in vivo at 0.003 µmol/kg: 96.1%
[23]
  inhibition in vivo at 0.003 µmol/kg: 97.5%
[24]
  inhibition in vivo at 0.003 µmol/kg: 97.2%
[25]
  inhibition in vivo at 0.003 µmol/kg: 37.2%
[26]
  inhibition in vivo at 0.003 µmol/kg: 49.9%
[27]
  inhibition in vivo at 0.003 µmol/kg: 58.8%
[28]
  Time: >270 min
[29]
  pIC50: 9.60
[30]
  inhibition in vivo at 0.001 µmol/kg: 65.5%
[31]
  inhibition in vivo at 0.001 µmol/kg: 23.8%
[32]
  inhibition in vivo at 0.001 µmol/kg: 67.7%
[33]
  inhibition in vivo at 0.001 µmol/kg: 70%
[34]
  inhibition in vivo at 0.001 µmol/kg: 31.9%

## O=C(N[C@H](c1ccccc1)c1cccc(OCc2ccc(C(=O)OCCCCNC[C@H](O)c3ccc(O)c4[nH]c(=O)ccc34)cc2)c1)O[C@H]1CN2CCC1CC2
[17]
  half-life at 1 µM: 16.8 min
[19]
  half-life at 5 µM: < 5 min
[20]
  half-life at 5 µM: < 5 min
[21]
  half-life at 5 µM: 46.7 min
[28]
  Time: 180 min
[29]
  pIC50: 8.90

## O=C(N[C@@H](c1ccccc1)c1cccc(OCc2ccc(C(=O)OCCCCNC[C@H](O)c3ccc(O)c4[nH]c(=O)ccc34)cc2)c1)O[C@H]1CN2CCC1CC2
[17]
  half-life at 1 µM: 26.4 min
[19]
  half-life at 5 µM: < 5 min
[20]
  half-life at 5 µM: < 5 min
[21]
  half-life at 5 µM: 69.8 min
[28]
  Time: >225 min
[29]
  pIC50: 10.00

## COc1cc(C(=O)OCCCCNC[C@H](O)c2ccc(O)c3[nH]c(=O)ccc23)ccc1COc1cccc([C@@H](NC(=O)O[C@H]2CN3CCC2CC3)c2ccccc2)c1
[17]
  half-life at 1 µM: 89.3 min
[19]
  half-life at 5 µM: 21 min
[20]
  half-life at 5 µM: 12 min
[21]
  half-life at 5 µM: 83.5 min
[28]
  Time: <135 min
[29]
  pIC50: 8.90
